Data as given in patent US7632666B2 (priority 2005, dated 2009).

How the values were obtained:
[1] = target: haloalkane dehalogenase LinB wild type (Sphingobium indicum, UniProt D4Z2G1); type: biochemical, Sphingomonas paucimobilis UT26
[2] = target: haloalkane dehalogenase LinB L177A (Sphingobium indicum, UniProt D4Z2G1, L177A); type: biochemical
[3] = target: haloalkane dehalogenase LinB L177C (Sphingobium indicum, UniProt D4Z2G1, L177C); type: biochemical
[4] = target: haloalkane dehalogenase LinB L177G (Sphingobium indicum, UniProt D4Z2G1, L177G); type: biochemical
Chain of haloalkane dehalogenase LinB L177G (D4Z2G1 whole entry L177G, looked up): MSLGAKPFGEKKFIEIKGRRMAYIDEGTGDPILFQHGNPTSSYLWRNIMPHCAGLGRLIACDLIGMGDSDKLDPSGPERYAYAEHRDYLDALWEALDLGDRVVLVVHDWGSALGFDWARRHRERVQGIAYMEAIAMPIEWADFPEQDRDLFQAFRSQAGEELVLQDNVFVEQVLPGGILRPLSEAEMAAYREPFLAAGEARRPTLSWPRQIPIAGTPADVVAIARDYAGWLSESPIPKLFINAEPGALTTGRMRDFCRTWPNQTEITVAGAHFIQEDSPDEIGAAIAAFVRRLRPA

[5] = target: haloalkane dehalogenase LinB L177F (Sphingobium indicum, UniProt D4Z2G1, L177F); type: biochemical
Chain of haloalkane dehalogenase LinB L177F (D4Z2G1 whole entry L177F, looked up): as the sequence (D4Z2G1 whole entry L177G, looked up) above, with G177F counted along it

[6] = target: haloalkane dehalogenase LinB L177K (Sphingobium indicum, UniProt D4Z2G1, L177K); type: biochemical
Chain of haloalkane dehalogenase LinB L177K (D4Z2G1 whole entry L177K, looked up): as the sequence (D4Z2G1 whole entry L177G, looked up) above, with G177K counted along it

[7] = target: haloalkane dehalogenase LinB L177T (Sphingobium indicum, UniProt D4Z2G1, L177T); type: biochemical
Chain of haloalkane dehalogenase LinB L177T (D4Z2G1 whole entry L177T, looked up): as the sequence (D4Z2G1 whole entry L177G, looked up) above, with G177T counted along it

[8] = target: haloalkane dehalogenase LinB L177W (Sphingobium indicum, UniProt D4Z2G1, L177W); type: biochemical
Chain of haloalkane dehalogenase LinB L177W (D4Z2G1 whole entry L177W, looked up): as the sequence (D4Z2G1 whole entry L177G, looked up) above, with G177W counted along it

[9] = target: haloalkane dehalogenase LinB L177D (Sphingobium indicum, UniProt D4Z2G1, L177D); type: biochemical
Chain of haloalkane dehalogenase LinB L177D (D4Z2G1 whole entry L177D, looked up): as the sequence (D4Z2G1 whole entry L177G, looked up) above, with G177D counted along it

[10] = target: haloalkane dehalogenase LinB L177H (Sphingobium indicum, UniProt D4Z2G1, L177H); type: biochemical
Chain of haloalkane dehalogenase LinB L177H (D4Z2G1 whole entry L177H, looked up): as the sequence (D4Z2G1 whole entry L177G, looked up) above, with G177H counted along it

[11] = target: haloalkane dehalogenase LinB L177M (Sphingobium indicum, UniProt D4Z2G1, L177M); type: biochemical
Chain of haloalkane dehalogenase LinB L177M (D4Z2G1 whole entry L177M, looked up): as the sequence (D4Z2G1 whole entry L177G, looked up) above, with G177M counted along it

[12] = target: haloalkane dehalogenase LinB L177Q (Sphingobium indicum, UniProt D4Z2G1, L177Q); type: biochemical
Chain of haloalkane dehalogenase LinB L177Q (D4Z2G1 whole entry L177Q, looked up): as the sequence (D4Z2G1 whole entry L177G, looked up) above, with G177Q counted along it

[13] = target: haloalkane dehalogenase LinB L177R (Sphingobium indicum, UniProt D4Z2G1, L177R); type: biochemical
Chain of haloalkane dehalogenase LinB L177R (D4Z2G1 whole entry L177R, looked up): as the sequence (D4Z2G1 whole entry L177G, looked up) above, with G177R counted along it

[14] = target: haloalkane dehalogenase LinB L177S (Sphingobium indicum, UniProt D4Z2G1, L177S); type: biochemical
Chain of haloalkane dehalogenase LinB L177S (D4Z2G1 whole entry L177S, looked up): as the sequence (D4Z2G1 whole entry L177G, looked up) above, with G177S counted along it

[15] = target: haloalkane dehalogenase LinB L177V (Sphingobium indicum, UniProt D4Z2G1, L177V); type: biochemical
Chain of haloalkane dehalogenase LinB L177V (D4Z2G1 whole entry L177V, looked up): as the sequence (D4Z2G1 whole entry L177G, looked up) above, with G177V counted along it

[16] = target: haloalkane dehalogenase LinB L177Y (Sphingobium indicum, UniProt D4Z2G1, L177Y); type: biochemical
Chain of haloalkane dehalogenase LinB L177Y (D4Z2G1 whole entry L177Y, looked up): as the sequence (D4Z2G1 whole entry L177G, looked up) above, with G177Y counted along it

[17] = target: T1, haloalkane dehalogenase DbjA (Bradyrhizobium diazoefficiens, UniProt P59337); type: biochemical, Bradyrhizobium japonicum USDA110; conditions: for Relative enzyme activity (%) 5% of solvent / Relative enzyme activity (%) 10% of solvent / Relative enzyme activity (%) 20% of solvent: pH 8.6
T1 sequence (P59337 whole entry): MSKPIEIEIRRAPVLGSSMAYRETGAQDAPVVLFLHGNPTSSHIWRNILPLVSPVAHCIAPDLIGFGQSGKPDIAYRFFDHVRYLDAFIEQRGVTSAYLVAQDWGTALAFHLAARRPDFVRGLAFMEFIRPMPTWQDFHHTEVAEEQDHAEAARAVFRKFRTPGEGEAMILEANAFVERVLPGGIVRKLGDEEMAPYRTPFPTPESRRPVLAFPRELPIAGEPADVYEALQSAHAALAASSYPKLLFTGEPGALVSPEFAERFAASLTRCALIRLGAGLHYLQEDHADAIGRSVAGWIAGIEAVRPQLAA

[18] = target: haloalkane dehalogenase DhlA (Xanthobacter autotrophicus, UniProt P22643); type: biochemical, Xanthobacter autotrophicus GJ10
Chain of haloalkane dehalogenase DhlA (P22643 whole entry): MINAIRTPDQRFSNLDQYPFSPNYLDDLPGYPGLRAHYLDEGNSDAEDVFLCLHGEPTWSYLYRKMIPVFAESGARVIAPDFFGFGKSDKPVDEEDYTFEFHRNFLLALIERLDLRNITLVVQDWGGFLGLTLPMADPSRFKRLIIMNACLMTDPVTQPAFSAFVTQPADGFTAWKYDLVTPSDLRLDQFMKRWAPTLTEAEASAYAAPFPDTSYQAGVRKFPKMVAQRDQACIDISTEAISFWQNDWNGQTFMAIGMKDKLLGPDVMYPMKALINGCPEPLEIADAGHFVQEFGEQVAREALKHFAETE

[19] = target: haloalkane dehalogenase DhaA (Rhodococcus rhodochrous, UniProt P0A3G2); type: biochemical, Rhodococcus rhodochrous NCIMB 13064
Chain of haloalkane dehalogenase DhaA (P0A3G2 whole entry): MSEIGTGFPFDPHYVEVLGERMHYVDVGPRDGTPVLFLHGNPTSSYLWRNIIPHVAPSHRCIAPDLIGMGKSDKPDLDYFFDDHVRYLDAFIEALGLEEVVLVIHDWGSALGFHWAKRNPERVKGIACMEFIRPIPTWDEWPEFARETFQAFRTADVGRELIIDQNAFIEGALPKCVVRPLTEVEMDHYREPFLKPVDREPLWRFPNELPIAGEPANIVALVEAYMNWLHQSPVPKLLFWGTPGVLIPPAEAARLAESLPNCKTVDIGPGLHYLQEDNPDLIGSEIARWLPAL

[20] = target: haloalkane dehalogenase LinB (Sphingobium indicum, UniProt D4Z2G1); type: biochemical, Sphingomonas paucimobilis UT26
Chain of haloalkane dehalogenase LinB (D4Z2G1 whole entry): as the sequence (D4Z2G1 whole entry L177G, looked up) above, with G177L counted along it

[21] = target: T1, haloalkane dehalogenase DbjA; type: biochemical, Bradyrhizobium japonicum USDA110

Chain of haloalkane dehalogenase LinB wild type (D4Z2G1 whole entry): as the sequence (D4Z2G1 whole entry L177G, looked up) above, with G177L counted along it
Chain of haloalkane dehalogenase LinB L177A (D4Z2G1 whole entry L177A, looked up): as the sequence (D4Z2G1 whole entry L177G, looked up) above, with G177A counted along it
Chain of haloalkane dehalogenase LinB L177C (D4Z2G1 whole entry L177C, looked up): as the sequence (D4Z2G1 whole entry L177G, looked up) above, with G177C counted along it

CCCCI [1-iodobutane]
Relative activities (% of wt) wt1 [1]: 100 % of wt
Relative activities (% of wt) wt2 [1]: 100 % of wt
Relative activities (% of wt) L177A [2]: 133 % of wt
Relative activities (% of wt) L177C [3]: 210 % of wt
Relative activities (% of wt) L177G [4]: 344 % of wt
Relative activities (% of wt) L177F [5]: 126 % of wt
Relative activities (% of wt) L177K [6]: 131 % of wt
Relative activities (% of wt) L177T [7]: 424 % of wt
Relative activities (% of wt) L177W [8]: 58 % of wt
Relative activities (% of wt) L177D [9]: 259 % of wt
Relative activities (% of wt) L177H [10]: 208 % of wt
Relative activities (% of wt) L177M [11]: 187 % of wt
Relative activities (% of wt) L177Q [12]: 373 % of wt
Relative activities (% of wt) L177R [13]: 161 % of wt
Relative activities (% of wt) L177S [14]: 363 % of wt
Relative activities (% of wt) L177V [15]: 101 % of wt
Relative activities (% of wt) L177Y [16]: 97 % of wt

OCCO [ethyleneglycol]
Relative enzyme activity (%) 5% of solvent [17]: 87.1 ± 9.8%
Relative enzyme activity (%) 10% of solvent [17]: 80.5 ± 8.9%
Relative enzyme activity (%) 20% of solvent [17]: 109.8 ± 4.0%

ICCCI [1,3-diidopropane]
Relative activities (% of wt) wt1 [1]: 100 % of wt
Relative activities (% of wt) wt2 [1]: 100 % of wt
Relative activities (% of wt) L177A [2]: 360 % of wt
Relative activities (% of wt) L177C [3]: 192 % of wt
Relative activities (% of wt) L177G [4]: 164 % of wt
Relative activities (% of wt) L177F [5]: 130 % of wt
Relative activities (% of wt) L177K [6]: 132 % of wt
Relative activities (% of wt) L177T [7]: 108 % of wt
Relative activities (% of wt) L177W [8]: 117 % of wt
Relative activities (% of wt) L177D [9]: 209 % of wt
Relative activities (% of wt) L177H [10]: 140 % of wt
Relative activities (% of wt) L177M [11]: 202 % of wt
Relative activities (% of wt) L177Q [12]: 159 % of wt
Relative activities (% of wt) L177R [13]: 127 % of wt
Relative activities (% of wt) L177S [14]: 123 % of wt
Relative activities (% of wt) L177V [15]: 206 % of wt
Relative activities (% of wt) L177Y [16]: 102 % of wt

NC=O [Formamide]
Relative enzyme activity (%) 5% of solvent [17]: 73.4 ± 7.6%
Relative enzyme activity (%) 10% of solvent [17]: 76.3 ± 5.0%
Relative enzyme activity (%) 20% of solvent [17]: 16.3 ± 0.6%

CN(C)C=O [N,N-dimethylformamide]
Relative enzyme activity (%) 5% of solvent [17]: 110.5 ± 11.6%
Relative enzyme activity (%) 10% of solvent [17]: 112.6 ± 3.8%
Relative enzyme activity (%) 20% of solvent [17]: 101.9 ± 1.0%

CC(Cl)CCCl (racemic) [1,3-dichlorobutane]
E-values DhlA [18]: 2.8
E-values DhaA [19]: 1.6
E-values LinB [20]: 2.6
E-values DbjA [21]: 1.0

C1CCOC1 [tetrahydrofurane]
Relative enzyme activity (%) 5% of solvent [17]: 111.9 ± 13.4%
Relative enzyme activity (%) 10% of solvent [17]: 96.9 ± 9.0%
Relative enzyme activity (%) 20% of solvent [17]: 0.0 ± 0.0%

CC(CCl)CBr (racemic) [1-bromo-3-chloro-2-methylpropane]
E-values DhlA [18]: 1.8
E-values DhaA [19]: 1.7
E-values LinB [20]: 1.8
E-values DbjA [21]: 1.4

CCCCCl [1-chlorobutane]
Km [9]: 21.9 mM

CC(C)=O [acetone]
DbjA activity in the presence of the solvent in the reaction medium [17]: increasing activity
increase of reaction rate compared to that in the glycine buffer [17]: 1.68 times
Relative enzyme activity (%) 5% of solvent [17]: 113.8 ± 7.3%
Relative enzyme activity (%) 10% of solvent [17]: 140.3 ± 2.1%
Relative enzyme activity (%) 20% of solvent [17]: 168.2 ± 3.1%

CC(Br)CBr (centres unmarked) [1,2-dibromopropane]
E-values DhlA [18]: 3
E-values DhaA [19]: 1.3
E-values LinB [20]: 1.3
E-values DbjA [21]: 2.6

C1COCCO1 [1,4-dioxane]
DbjA activity in the presence of the solvent in the reaction medium [17]: increasing activity
Relative enzyme activity (%) 5% of solvent [17]: 121.4 ± 3.9%
Relative enzyme activity (%) 10% of solvent [17]: 139.9 ± 7.8%
Relative enzyme activity (%) 20% of solvent [17]: 152.0 ± 9.5%
